Source: publication PMC4279419, “Angiostatic, tumor inflammatory and anti-tumor effects of CXCL4^47–70 and CXCL4L1^47–70 in an EGF-dependent breast cancer model” (Oncotarget, 2014)
Where no end group is shown, it is not given here.

What was measured:
[1] = tested on: macrophage markers; assay: qPCR tumor macrophage marker expression; assay type: in vivo, murine; conditions: 2.5 μg intratumoral 3×/week; 2^−ΔΔCT
Protocol: (§1) The RNeasy Mini Kit (QIAGEN, Venlo, the Netherlands) was used for tumor mRNA extraction. The extracted mRNA was then converted to cDNA making use of the High Capacity cDNA Reverse Transcription Kit (Applied Biosystems, Foster City, CA). Quantitative polymerase chain reactions (qPCR) based on the TaqMan principle were conducted to compare gene expression between samples. Primers and probes (Table 2; Integrated DNA Technologies, Haasrode, Belgium), were diluted to the prescribed working concentrations in RNase-free water and added to the reaction mix in a MicroAmp® fast optical 96-well reaction plate (Applied Biosystems), together with 50 ng sample cDNA per reaction. The actual thermocycler program consisted of 2 minutes on 50 °C, 10 minutes on 95 °C and 40 cycles of 15 seconds on 95 °C followed by 1 minute on 60 °C. Analysis of the obtained CT was based on the 2^−ΔΔC^T method, opting for 18S ribosomal 1 RNA as an internal control.

[2] = tested on: B16 melanoma; conditions: previous study by our group; cited from earlier work
From the text: The chemokines CXCL4 and CXCL4L1 have both been attributed anti-tumoral activity as a result of angiostatic action, blockade of lymphatic vessel formation and the attraction of anti-tumoral lymphocytes. CXCL4L1 is considered to be a more powerful angiostatic and anti-tumoral agent than its homologue CXCL4, despite their striking 96% sequence identity. This functional difference has been linked to a single amino acid replacement, causing CXCL4L1 to adapt a unique carboxy-terminal 3D-structure with decreased affinity for GAGs. However, the causal link ...

[3] = tested on: F4/80; assay: qPCR tumor F4/80 mRNA; assay type: in vivo, murine; conditions: 2.5 μg intratumoral 3×/week; 2^−ΔΔCT; p=0.008, n=10
Protocol: as §1

[4] = tested on: TGM2; assay: qPCR tumor TGM2 mRNA (M2 marker); assay type: in vivo, murine; conditions: 2.5 μg intratumoral 3×/week; 2^−ΔΔCT
Protocol: as §1

[5] = tested on: IL-12; assay: qPCR tumor IL-12 mRNA (M1 marker); assay type: in vivo, murine; conditions: 2.5 μg intratumoral 3×/week; 2^−ΔΔCT; not reaching statistical significance
Protocol: as §1

[6] = tested on: CD11c; assay: qPCR tumor CD11c mRNA (dendritic cell marker); assay type: in vivo, murine; conditions: 2.5 μg intratumoral 3×/week; 2^−ΔΔCT; p=0.032, n=10
Protocol: as §1

[7] = tested on: muCCL5; assay: qPCR stromal CCL5 mRNA; assay type: in vivo, murine; conditions: 2.5 μg intratumoral 3×/week; 2^−ΔΔCT; p=0.020, n=7
Protocol: as §1

[8] = tested on: monocytic THP-1; conditions: as a single stimulus; cited from earlier work
From the text: Perception of the role of the immune system in tumor development has changed over time. Tumor inflammation is indeed the seventh hallmark of malignant disease, but the sizeable myeloid population present has been mostly observed to take on a tumor-promoting role rather than exert its protective, phagocytic and cytotoxic function. This shift could be attributed to the phagocytes' versatility and their ability to adopt distinct phenotypes influenced by locally produced factors. Rather than depleting the tumoral myeloid cell population, it could be beneficial to tackle its pola ...

Row | Substance | macrophage marker expression versus vehicle [1] | effect in treatment of B16 melanoma [2] | F4/80 mRNA level versus control [3] | TGM2 mRNA versus control [4] | IL-12 mRNA versus control [5] | CD11c mRNA versus vehicle [6] | stromal CCL5 expression versus vehicle [7] | THP-1 migration, single stimulus [8]
1 | CXCL4L1^47–70: synthetic human carboxy-terminal peptide restricted to the last 24 amino acids of CXCL4L1, Fmoc chemistry | No significant changes in macrophage marker expression | beneficial effects of CXCL4L1^47–70 |  |  |  |  |  | 
2 | CXCL4^47–70: synthetic human carboxy-terminal peptide restricted to the last 24 amino acids of CXCL4, Fmoc chemistry (NGRKICLDLQAPLYKKIIKKLLES; not fully specified (N-terminus)) |  |  | significantly higher | only a modest increase | only modestly increased | more prominent | significantly upregulated | not to stimulate monocytic THP-1 migration
